Columns and labels:
Assay in all cases: SelectScreen ZLYTE
Type in all cases: biochemical
Details in all cases: INX-0315 at 100nM
MAPK13 (p38 delta) = molecular target: T1, MAPK13 (p38 delta) (Homo sapiens, UniProt O15264)
T1 construct: purchased Thermo Fisher Scientific SelectScreen (plus Nanosyn / Reaction Biology for CDK/cyclin lines)
Method in brief: (§1)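 Preset conditions throughout. Primary: 100 nmol/L INX-315, 1% DMSO. Secondary: ten doses, top 1 µmol/L, bottom 0.0495 nmol/L.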

SGK2 = molecular target: T2, SGK2 (Homo sapiens, UniProt Q9HBY8)
T2 construct: purchased Thermo Fisher Scientific SelectScreen (plus Nanosyn / Reaction Biology for CDK/cyclin lines)
Method in brief: as §1

PRKCG (PKC gamma) = molecular target: T3, PRKCG (PKC gamma) (Homo sapiens, UniProt P05129)
T3 construct: purchased Thermo Fisher Scientific SelectScreen (plus Nanosyn / Reaction Biology for CDK/cyclin lines)
Method in brief: as §1

AURKB (Aurora B) = molecular target: T4, AURKB (Aurora B) (Homo sapiens, UniProt Q96GD4)
T4 construct: purchased Thermo Fisher Scientific SelectScreen (plus Nanosyn / Reaction Biology for CDK/cyclin lines)
Method in brief: as §1

CAMK1D (CaMKI delta) = molecular target: T5, CAMK1D (CaMKI delta) (Homo sapiens, UniProt Q8IU85)
T5 construct: purchased Thermo Fisher Scientific SelectScreen (plus Nanosyn / Reaction Biology for CDK/cyclin lines)
Method in brief: as §1

FLT3 = molecular target: T6, FLT3 (Homo sapiens, UniProt P36888)
T6 construct: purchased Thermo Fisher Scientific SelectScreen (plus Nanosyn / Reaction Biology for CDK/cyclin lines)
Method in brief: as §1

DYRK1B = molecular target: T7, DYRK1B (Homo sapiens, UniProt Q9Y463)
T7 construct: purchased Thermo Fisher Scientific SelectScreen (plus Nanosyn / Reaction Biology for CDK/cyclin lines)
Method in brief: as §1

ABL1 T315I = molecular target: T8, ABL1 T315I (Homo sapiens, UniProt P00519, T315I)
T8 construct: purchased Thermo Fisher Scientific SelectScreen (plus Nanosyn / Reaction Biology for CDK/cyclin lines)
Method in brief: as §1

MAP3K8 (COT) = molecular target: T9, MAP3K8 (COT) (Homo sapiens, UniProt P41279)
T9 construct: purchased Thermo Fisher Scientific SelectScreen (plus Nanosyn / Reaction Biology for CDK/cyclin lines)
Method in brief: as §1

EPHA4 = molecular target: T10, EPHA4 (Homo sapiens, UniProt P54764)
T10 construct: purchased Thermo Fisher Scientific SelectScreen (plus Nanosyn / Reaction Biology for CDK/cyclin lines)
Method in brief: as §1

PRKD2 (PKD2) = molecular target: T11, PRKD2 (PKD2) (Homo sapiens, UniProt Q9BZL6)
T11 construct: purchased Thermo Fisher Scientific SelectScreen (plus Nanosyn / Reaction Biology for CDK/cyclin lines)
Method in brief: as §1

AKT1 (PKB alpha) = molecular target: T12, AKT1 (PKB alpha) (Homo sapiens, UniProt P31749)
T12 construct: purchased Thermo Fisher Scientific SelectScreen (plus Nanosyn / Reaction Biology for CDK/cyclin lines)
Method in brief: as §1

CSNK1G1 (CK1 gamma 1) = molecular target: T13, CSNK1G1 (CK1 gamma 1) (Homo sapiens, UniProt Q9HCP0)
T13 construct: purchased Thermo Fisher Scientific SelectScreen (plus Nanosyn / Reaction Biology for CDK/cyclin lines)
Method in brief: as §1

CAMK2A (CaMKII alpha) = molecular target: T14, CAMK2A (CaMKII alpha) (Homo sapiens, UniProt Q9UQM7)
T14 construct: purchased Thermo Fisher Scientific SelectScreen (plus Nanosyn / Reaction Biology for CDK/cyclin lines)
Method in brief: as §1

PTK6 (Brk) = molecular target: T15, PTK6 (Brk) (Homo sapiens, UniProt Q13882)
T15 construct: purchased Thermo Fisher Scientific SelectScreen (plus Nanosyn / Reaction Biology for CDK/cyclin lines)
Method in brief: as §1

ERBB2 (HER2) = molecular target: T16, ERBB2 (HER2) (Homo sapiens, UniProt P04626)
T16 construct: purchased Thermo Fisher Scientific SelectScreen (plus Nanosyn / Reaction Biology for CDK/cyclin lines)
Method in brief: as §1

GRK7 = molecular target: T17, GRK7 (Homo sapiens, UniProt Q8WTQ7)
T17 construct: purchased Thermo Fisher Scientific SelectScreen (plus Nanosyn / Reaction Biology for CDK/cyclin lines)
Method in brief: as §1

AMPK (A1/B2/G3) = molecular target: T18, AMPK (A1/B2/G3) (Homo sapiens, UniProt Q13131)
T18 construct: purchased Thermo Fisher Scientific SelectScreen (plus Nanosyn / Reaction Biology for CDK/cyclin lines)
Method in brief: as §1

AMPK (A2/B2/G3) = molecular target: T19, AMPK (A2/B2/G3) (Homo sapiens, UniProt P54646)
T19 construct: purchased Thermo Fisher Scientific SelectScreen (plus Nanosyn / Reaction Biology for CDK/cyclin lines)
Method in brief: as §1

EGFR (ErbB1) L861Q = molecular target: T20, EGFR (ErbB1) L861Q (Homo sapiens, UniProt P00533, L861Q)
T20 construct: purchased Thermo Fisher Scientific SelectScreen (plus Nanosyn / Reaction Biology for CDK/cyclin lines)
Method in brief: as §1

CDK5/p35 = molecular target: T21, CDK5/p35 (Homo sapiens, UniProt Q00535)
T21 construct: purchased Thermo Fisher Scientific SelectScreen (plus Nanosyn / Reaction Biology for CDK/cyclin lines)
Method in brief: as §1

STK22B (TSSK2) = molecular target: T22, STK22B (TSSK2) (Homo sapiens, UniProt Q96PF2)
T22 construct: purchased Thermo Fisher Scientific SelectScreen (plus Nanosyn / Reaction Biology for CDK/cyclin lines)
Method in brief: as §1

TXK = molecular target: T23, TXK (Homo sapiens, UniProt P42681)
T23 construct: purchased Thermo Fisher Scientific SelectScreen (plus Nanosyn / Reaction Biology for CDK/cyclin lines)
Method in brief: as §1

MARK3 = molecular target: T24, MARK3 (Homo sapiens, UniProt P27448)
T24 construct: purchased Thermo Fisher Scientific SelectScreen (plus Nanosyn / Reaction Biology for CDK/cyclin lines)
Method in brief: as §1

SRC N1 = molecular target: T25, SRC N1 (Homo sapiens, UniProt P12931)
T25 construct: purchased Thermo Fisher Scientific SelectScreen (plus Nanosyn / Reaction Biology for CDK/cyclin lines)
Method in brief: as §1

PLK1 = molecular target: T26, PLK1 (Homo sapiens, UniProt P53350)
T26 construct: purchased Thermo Fisher Scientific SelectScreen (plus Nanosyn / Reaction Biology for CDK/cyclin lines)
Method in brief: as §1

CSNK1A1 (CK1 alpha 1) = molecular target: T27, CSNK1A1 (CK1 alpha 1) (Homo sapiens, UniProt P48729)
T27 construct: purchased Thermo Fisher Scientific SelectScreen (plus Nanosyn / Reaction Biology for CDK/cyclin lines)
Method in brief: as §1

PDK1 Direct = molecular target: T28, PDK1 Direct (Homo sapiens, UniProt O15530)
T28 construct: purchased Thermo Fisher Scientific SelectScreen (plus Nanosyn / Reaction Biology for CDK/cyclin lines)
Method in brief: as §1

KDR (VEGFR2) = molecular target: T29, KDR (VEGFR2) (Homo sapiens, UniProt P35968)
T29 construct: purchased Thermo Fisher Scientific SelectScreen (plus Nanosyn / Reaction Biology for CDK/cyclin lines)
Method in brief: as §1

STK3 (MST2) = molecular target: T30, STK3 (MST2) (Homo sapiens, UniProt Q13188)
T30 construct: purchased Thermo Fisher Scientific SelectScreen (plus Nanosyn / Reaction Biology for CDK/cyclin lines)
Method in brief: as §1

PRKCQ (PKC theta) = molecular target: T31, PRKCQ (PKC theta) (Homo sapiens, UniProt Q04759)
T31 construct: purchased Thermo Fisher Scientific SelectScreen (plus Nanosyn / Reaction Biology for CDK/cyclin lines)
Method in brief: as §1

ADRBK1 (GRK2) = molecular target: T32, ADRBK1 (GRK2) (Homo sapiens, UniProt P25098)
T32 construct: purchased Thermo Fisher Scientific SelectScreen (plus Nanosyn / Reaction Biology for CDK/cyclin lines)
Method in brief: as §1

PRKCZ (PKC zeta) = molecular target: T33, PRKCZ (PKC zeta) (Homo sapiens, UniProt Q05513)
T33 construct: purchased Thermo Fisher Scientific SelectScreen (plus Nanosyn / Reaction Biology for CDK/cyclin lines)
Method in brief: as §1

TYRO3 (RSE) = molecular target: T34, TYRO3 (RSE) (Homo sapiens, UniProt Q06418)
T34 construct: purchased Thermo Fisher Scientific SelectScreen (plus Nanosyn / Reaction Biology for CDK/cyclin lines)
Method in brief: as §1

PRKCB2 (PKC beta II) = molecular target: T35, PRKCB2 (PKC beta II) (Homo sapiens, UniProt P05771)
T35 construct: purchased Thermo Fisher Scientific SelectScreen (plus Nanosyn / Reaction Biology for CDK/cyclin lines)
Method in brief: as §1

TAOK2 (TAO1) = molecular target: T36, TAOK2 (TAO1) (Homo sapiens, UniProt Q9UL54)
T36 construct: purchased Thermo Fisher Scientific SelectScreen (plus Nanosyn / Reaction Biology for CDK/cyclin lines)
Method in brief: as §1

CHEK2 (CHK2) = molecular target: T37, CHEK2 (CHK2) (Homo sapiens, UniProt O96017)
T37 construct: purchased Thermo Fisher Scientific SelectScreen (plus Nanosyn / Reaction Biology for CDK/cyclin lines)
Method in brief: as §1

T18 sequence (Q13131 whole entry): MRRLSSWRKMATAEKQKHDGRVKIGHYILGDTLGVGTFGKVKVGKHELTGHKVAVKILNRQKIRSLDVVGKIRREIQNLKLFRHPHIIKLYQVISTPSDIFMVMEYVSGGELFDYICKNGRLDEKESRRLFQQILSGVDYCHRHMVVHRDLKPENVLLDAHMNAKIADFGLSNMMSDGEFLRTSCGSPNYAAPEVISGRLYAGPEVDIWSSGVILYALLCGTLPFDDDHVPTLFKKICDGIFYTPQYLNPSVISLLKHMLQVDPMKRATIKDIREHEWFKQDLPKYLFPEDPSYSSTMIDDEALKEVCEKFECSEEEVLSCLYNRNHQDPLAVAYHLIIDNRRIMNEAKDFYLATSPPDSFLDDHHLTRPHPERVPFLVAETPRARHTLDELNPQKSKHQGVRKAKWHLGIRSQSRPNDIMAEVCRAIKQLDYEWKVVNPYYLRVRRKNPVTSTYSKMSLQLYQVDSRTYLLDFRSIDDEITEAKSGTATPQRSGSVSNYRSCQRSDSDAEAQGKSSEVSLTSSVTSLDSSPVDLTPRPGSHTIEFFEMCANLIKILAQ
T18 sequence (O43741 whole entry partner): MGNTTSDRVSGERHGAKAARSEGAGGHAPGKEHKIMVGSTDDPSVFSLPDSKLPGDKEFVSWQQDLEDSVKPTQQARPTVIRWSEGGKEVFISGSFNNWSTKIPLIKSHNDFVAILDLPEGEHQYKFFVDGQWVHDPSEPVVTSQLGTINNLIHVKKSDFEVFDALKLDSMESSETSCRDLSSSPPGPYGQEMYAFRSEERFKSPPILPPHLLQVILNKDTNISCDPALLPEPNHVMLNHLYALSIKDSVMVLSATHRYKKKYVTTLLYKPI
T18 sequence (Q9UGI9 whole entry partner): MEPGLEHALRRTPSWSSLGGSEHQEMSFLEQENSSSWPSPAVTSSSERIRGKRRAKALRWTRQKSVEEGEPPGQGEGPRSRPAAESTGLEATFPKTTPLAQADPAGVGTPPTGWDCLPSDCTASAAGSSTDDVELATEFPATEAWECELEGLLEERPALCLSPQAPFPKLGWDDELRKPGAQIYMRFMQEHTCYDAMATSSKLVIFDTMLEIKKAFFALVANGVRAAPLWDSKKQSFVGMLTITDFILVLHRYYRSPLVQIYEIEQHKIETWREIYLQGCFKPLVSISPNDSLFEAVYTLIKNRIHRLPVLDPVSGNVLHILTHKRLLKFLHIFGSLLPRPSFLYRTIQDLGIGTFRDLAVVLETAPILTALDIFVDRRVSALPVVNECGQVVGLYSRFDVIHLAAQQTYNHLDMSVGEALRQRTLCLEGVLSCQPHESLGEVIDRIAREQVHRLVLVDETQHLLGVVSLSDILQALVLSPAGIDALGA
T2 sequence (Q9HBY8 whole entry): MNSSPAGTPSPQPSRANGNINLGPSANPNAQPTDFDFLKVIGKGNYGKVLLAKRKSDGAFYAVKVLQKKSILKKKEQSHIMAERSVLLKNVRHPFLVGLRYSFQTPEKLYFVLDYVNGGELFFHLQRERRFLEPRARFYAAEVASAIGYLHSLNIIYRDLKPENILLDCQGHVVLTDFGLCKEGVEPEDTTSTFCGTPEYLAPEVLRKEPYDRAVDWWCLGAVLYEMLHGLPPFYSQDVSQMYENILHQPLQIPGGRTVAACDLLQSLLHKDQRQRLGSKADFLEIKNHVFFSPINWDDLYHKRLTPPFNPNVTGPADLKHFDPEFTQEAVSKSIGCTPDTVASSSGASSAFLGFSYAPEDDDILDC
T10 sequence (P54764 20-986): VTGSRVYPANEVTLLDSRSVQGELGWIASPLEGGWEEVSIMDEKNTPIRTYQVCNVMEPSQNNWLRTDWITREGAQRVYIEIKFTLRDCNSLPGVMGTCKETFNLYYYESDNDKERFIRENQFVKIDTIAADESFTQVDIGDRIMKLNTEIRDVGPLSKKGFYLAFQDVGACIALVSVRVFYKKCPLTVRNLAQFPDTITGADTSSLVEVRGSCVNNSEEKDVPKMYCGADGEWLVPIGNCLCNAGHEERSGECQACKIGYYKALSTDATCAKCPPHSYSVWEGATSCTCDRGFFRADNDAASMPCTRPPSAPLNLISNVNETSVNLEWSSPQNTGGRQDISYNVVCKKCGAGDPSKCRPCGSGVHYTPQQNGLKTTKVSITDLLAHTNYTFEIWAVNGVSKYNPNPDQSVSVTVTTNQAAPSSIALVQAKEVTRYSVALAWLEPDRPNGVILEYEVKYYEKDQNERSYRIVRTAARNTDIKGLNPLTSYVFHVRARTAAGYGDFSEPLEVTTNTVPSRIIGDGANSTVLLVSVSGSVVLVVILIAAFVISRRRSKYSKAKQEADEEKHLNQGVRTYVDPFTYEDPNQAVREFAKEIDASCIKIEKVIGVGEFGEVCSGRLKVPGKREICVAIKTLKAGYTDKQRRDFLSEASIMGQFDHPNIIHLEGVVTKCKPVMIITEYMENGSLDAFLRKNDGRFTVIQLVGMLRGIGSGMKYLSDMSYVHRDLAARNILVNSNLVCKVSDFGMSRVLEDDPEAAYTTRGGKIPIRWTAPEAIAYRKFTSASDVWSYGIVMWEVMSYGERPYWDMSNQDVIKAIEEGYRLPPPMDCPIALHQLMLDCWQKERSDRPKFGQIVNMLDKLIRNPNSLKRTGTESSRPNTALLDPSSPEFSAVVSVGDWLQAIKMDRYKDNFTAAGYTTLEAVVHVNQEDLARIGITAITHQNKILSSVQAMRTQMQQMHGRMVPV
T13 sequence (Q9HCP0 whole entry): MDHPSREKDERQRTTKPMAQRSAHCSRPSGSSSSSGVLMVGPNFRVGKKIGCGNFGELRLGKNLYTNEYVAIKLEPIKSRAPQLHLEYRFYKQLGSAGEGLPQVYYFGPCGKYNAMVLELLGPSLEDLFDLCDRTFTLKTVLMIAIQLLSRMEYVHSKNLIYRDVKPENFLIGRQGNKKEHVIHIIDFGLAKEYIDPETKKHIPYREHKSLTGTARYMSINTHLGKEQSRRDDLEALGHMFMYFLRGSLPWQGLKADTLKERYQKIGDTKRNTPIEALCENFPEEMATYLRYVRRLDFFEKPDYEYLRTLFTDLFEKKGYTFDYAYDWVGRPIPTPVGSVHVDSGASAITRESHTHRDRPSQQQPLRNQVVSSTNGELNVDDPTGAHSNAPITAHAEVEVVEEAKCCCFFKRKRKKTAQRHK
T26 sequence (P53350 whole entry): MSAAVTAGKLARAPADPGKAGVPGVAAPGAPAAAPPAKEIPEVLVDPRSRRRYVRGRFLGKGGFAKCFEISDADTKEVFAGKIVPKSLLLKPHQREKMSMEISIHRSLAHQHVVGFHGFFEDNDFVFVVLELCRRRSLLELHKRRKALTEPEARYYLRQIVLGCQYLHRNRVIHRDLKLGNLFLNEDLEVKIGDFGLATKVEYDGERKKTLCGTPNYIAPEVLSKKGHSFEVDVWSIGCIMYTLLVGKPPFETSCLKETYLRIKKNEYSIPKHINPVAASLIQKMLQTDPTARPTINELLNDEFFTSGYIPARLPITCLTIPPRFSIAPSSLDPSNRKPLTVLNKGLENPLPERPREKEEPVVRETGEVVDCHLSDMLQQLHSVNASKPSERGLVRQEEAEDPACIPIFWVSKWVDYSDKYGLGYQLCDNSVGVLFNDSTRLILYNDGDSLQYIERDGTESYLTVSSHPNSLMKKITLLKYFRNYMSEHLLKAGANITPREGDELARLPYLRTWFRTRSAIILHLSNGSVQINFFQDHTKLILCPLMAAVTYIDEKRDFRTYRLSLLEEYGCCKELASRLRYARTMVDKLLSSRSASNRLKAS
T29 sequence (P35968 20-1356): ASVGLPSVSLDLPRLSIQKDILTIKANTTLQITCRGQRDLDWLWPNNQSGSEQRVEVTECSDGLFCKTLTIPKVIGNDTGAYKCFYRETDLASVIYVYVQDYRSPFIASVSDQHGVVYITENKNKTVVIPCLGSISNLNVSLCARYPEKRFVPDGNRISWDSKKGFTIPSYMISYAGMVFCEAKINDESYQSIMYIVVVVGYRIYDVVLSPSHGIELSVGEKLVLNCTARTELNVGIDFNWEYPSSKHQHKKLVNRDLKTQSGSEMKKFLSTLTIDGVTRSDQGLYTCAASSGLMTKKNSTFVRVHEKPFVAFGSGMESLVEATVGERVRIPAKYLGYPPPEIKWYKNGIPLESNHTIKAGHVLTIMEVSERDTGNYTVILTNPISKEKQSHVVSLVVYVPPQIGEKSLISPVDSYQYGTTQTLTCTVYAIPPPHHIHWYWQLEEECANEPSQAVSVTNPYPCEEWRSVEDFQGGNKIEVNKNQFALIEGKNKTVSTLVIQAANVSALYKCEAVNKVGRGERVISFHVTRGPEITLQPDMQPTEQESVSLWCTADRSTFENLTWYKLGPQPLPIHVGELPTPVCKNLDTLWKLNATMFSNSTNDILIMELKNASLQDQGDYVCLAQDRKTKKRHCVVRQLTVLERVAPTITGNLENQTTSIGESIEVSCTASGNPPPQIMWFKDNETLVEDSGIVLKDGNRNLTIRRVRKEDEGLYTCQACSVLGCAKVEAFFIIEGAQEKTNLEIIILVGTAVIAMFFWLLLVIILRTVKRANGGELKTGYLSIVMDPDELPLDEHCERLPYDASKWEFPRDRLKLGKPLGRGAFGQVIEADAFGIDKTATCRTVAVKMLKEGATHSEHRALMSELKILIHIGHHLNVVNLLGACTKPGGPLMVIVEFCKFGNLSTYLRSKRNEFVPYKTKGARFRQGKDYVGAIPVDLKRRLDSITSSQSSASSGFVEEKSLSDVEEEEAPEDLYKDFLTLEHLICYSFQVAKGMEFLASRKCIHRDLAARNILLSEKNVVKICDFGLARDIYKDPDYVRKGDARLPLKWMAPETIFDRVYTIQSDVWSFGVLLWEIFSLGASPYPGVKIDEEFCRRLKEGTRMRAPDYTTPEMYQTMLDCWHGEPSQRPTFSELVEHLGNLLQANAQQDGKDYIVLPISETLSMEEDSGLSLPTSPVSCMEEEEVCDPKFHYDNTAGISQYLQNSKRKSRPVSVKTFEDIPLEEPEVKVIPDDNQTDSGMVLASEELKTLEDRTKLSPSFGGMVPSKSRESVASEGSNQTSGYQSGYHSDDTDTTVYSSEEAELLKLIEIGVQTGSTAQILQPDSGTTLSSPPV

Molecule `NS(=O)(=O)c1ccc(Nc2ncc3cc4n(c3n2)C2(CCCCC2)C(=O)NN4)cc1` [INX-315] has an inhibition at 0.1 µM (MAPK13 (p38 delta)) of 5%, an inhibition at 0.1 µM (SGK2) of 5% and an inhibition at 0.1 µM (PRKCG (PKC gamma)) of 7%. It also gave an inhibition at 0.1 µM (AURKB (Aurora B)) of 53%, an inhibition at 0.1 µM (CAMK1D (CaMKI delta)) of 1% and an inhibition at 0.1 µM (FLT3) of 40%. For the same molecule, the inhibition at 0.1 µM (DYRK1B) was 1%, the inhibition at 0.1 µM (ABL1 T315I) was 10% and the inhibition at 0.1 µM (MAP3K8 (COT)) was -1%. It also gave an inhibition at 0.1 µM (EPHA4) of 5%, an inhibition at 0.1 µM (PRKD2 (PKD2)) of 5% and an inhibition at 0.1 µM (AKT1 (PKB alpha)) of 6%. For the same molecule, the inhibition at 0.1 µM (CSNK1G1 (CK1 gamma 1)) was 1%, the inhibition at 0.1 µM (CAMK2A (CaMKII alpha)) was -4% and the inhibition at 0.1 µM (PTK6 (Brk)) was -1%. For the same molecule, the inhibition at 0.1 µM (ERBB2 (HER2)) was 0%, the inhibition at 0.1 µM (GRK7) was 62% and the inhibition at 0.1 µM (AMPK (A1/B2/G3)) was 60%. The inhibition at 0.1 µM (AMPK (A2/B2/G3)) was 32%, the inhibition at 0.1 µM (EGFR (ErbB1) L861Q) was 3% and the inhibition at 0.1 µM (CDK5/p35) was 87%. It also gave an inhibition at 0.1 µM (STK22B (TSSK2)) of -2%, an inhibition at 0.1 µM (TXK) of 7% and an inhibition at 0.1 µM (MARK3) of 10%. The inhibition at 0.1 µM (SRC N1) was 9%, the inhibition at 0.1 µM (PLK1) was 4% and the inhibition at 0.1 µM (CSNK1A1 (CK1 alpha 1)) was 5%. It also gave an inhibition at 0.1 µM (PDK1 Direct) of 8%, an inhibition at 0.1 µM (KDR (VEGFR2)) of 42% and an inhibition at 0.1 µM (STK3 (MST2)) of 19%. It also gave an inhibition at 0.1 µM (PRKCQ (PKC theta)) of 8%, an inhibition at 0.1 µM (ADRBK1 (GRK2)) of 0% and an inhibition at 0.1 µM (PRKCZ (PKC zeta)) of 10%. It also gave an inhibition at 0.1 µM (TYRO3 (RSE)) of 14%, an inhibition at 0.1 µM (PRKCB2 (PKC beta II)) of 13% and an inhibition at 0.1 µM (TAOK2 (TAO1)) of 10%. It also gave an inhibition at 0.1 µM (CHEK2 (CHK2)) of 7%.

From PMC10905675, “INX-315, a Selective CDK2 Inhibitor, Induces Cell Cycle Arrest and Senescence in Solid Tumors” (Cancer Discovery, 2023)
